In the supplement of paper PMC10307832:

Compound: COC1=CC=C(C=C1)CN2C=CC3=C2C=C(C=C3)C(=O)NO + Cc1cc(Nc2cc(N3CCN(C)CC3)nc(Sc3ccc(NC(=O)C4CC4)cc3)n2)n[nH]1 [Tozasertib] (partner 0.1 µM)
Experiment: relative viability (nuclei count vs DMSO), 5 days (fraction); higher = more cells survive
Settings: first compound 8 µM
In short: (§1)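 Values are medians from duplicate plates. Each reflects relative viability, defined as the nuclei count of treated wells over that of vehicle wells. Lung cancer cell lines in 1536-well plates were pin-tool dosed one day after seeding with one drug alone or with a fixed anchor-drug dose plus five library-drug doses (not always all listed) in √10 steps, then fixed, stained and imaged at 4× after 5 days.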

Cell Line	relative viability
NCI-H2342	0.47
NCI-H1623	0.436
LU99A	0.298
NCI-H1975	0.551
H3255	0.604
NCI-H2023	0.396
NCI-H2405	0.656
SK-LU-1	0.3
NCI-H1734	0.23
NCI-H1437	0.409
ABC-1	0.209
NCI-H596	0.743
HCC-15	0.318
NCI-H460	0.195
EMC-BAC-2	0.237
NCI-H2009	0.64
COR-L 105	0.319
NCI-H520	0.375
NCI-H1648	0.473
NCI-H1650	0.326
SW 900	0.489
COR-L23	0.169
NCI-H522	0.545
UMC-11	0.223
NCI-H2228	0.185
ChaGo-K-1	0.234
HCC-44	0.792
SK-MES-1	0.81
NCI-H661	0.329

Compound: C[C@]1(c2nc3c(C(N)=O)cccc3[nH]2)CCCN1 [Veliparib] + Cc1nc(NC(=O)N2CCC[C@H]2C(N)=O)sc1-c1ccnc(C(C)(C)C(F)(F)F)c1 [Alpelisib] (partner 2 µM)
Experiment: as above
Settings: first compound 0.02 µM
In short: as §1

Cell Line	relative viability
LU99A	0.504
NCI-H1975	0.64
H3255	0.656
NCI-H2023	0.629
SK-LU-1	1.12
NCI-H1734	0.734
NCI-H1437	0.898
NCI-H596	0.516
HCC-15	0.842
EMC-BAC-2	0.783
IA-LM	0.796
NCI-H2009	1.19
COR-L 105	1.12
NCI-H520	0.882
EBC-1	0.882
NCI-H1299	1.04
A549	0.697
COR-L23	0.784
NCI-H1563	0.981
UMC-11	1.01
NCI-H2228	0.818
NCI-H1703	0.245
Calu-6	1.15
HCC-44	0.807
NCI-H1792	0.678
SK-MES-1	0.938
NCI-H661	0.361

Same assay, conditions: first compound 0.06325 µM

Cell Line	relative viability
LU99A	0.459
NCI-H1975	0.657
H3255	0.841
NCI-H2023	0.621
NCI-H2405	0.776
SK-LU-1	0.943
NCI-H1734	0.569
NCI-H1437	0.977
ABC-1	0.809
NCI-H596	0.497
HCC-15	0.905
NCI-H460	0.342
EMC-BAC-2	0.746
IA-LM	0.764
NCI-H2009	0.994
COR-L 105	1.1
NCI-H520	1.06
EBC-1	0.77
NCI-H1299	0.992
A549	0.686
COR-L23	0.733
NCI-H1563	0.965
UMC-11	0.941
NCI-H2228	0.688
NCI-H1703	0.303
Calu-6	0.909
HCC-44	0.648
NCI-H1792	0.592
SK-MES-1	0.712
NCI-H661	0.581

Same assay, conditions: first compound 0.2 µM

Cell Line	relative viability
LU99A	0.544
NCI-H1975	0.685
H3255	0.679
NCI-H2023	0.569
NCI-H2405	0.808
SK-LU-1	1.12
NCI-H1734	0.705
NCI-H1437	0.98
ABC-1	1.1
NCI-H596	0.541
HCC-15	0.863
NCI-H460	0.539
EMC-BAC-2	0.74
IA-LM	0.684
NCI-H2009	1.17
COR-L 105	1.09
NCI-H520	0.859
EBC-1	0.849
NCI-H1299	1.03
A549	0.75
COR-L23	0.874
NCI-H1563	1
UMC-11	1.14
NCI-H2228	0.832
NCI-H1703	0.316
Calu-6	1.01
HCC-44	0.844
NCI-H1792	0.799
SK-MES-1	0.878
NCI-H661	0.653

Same assay, conditions: first compound 0.6325 µM

Cell Line	relative viability
LU99A	0.509
NCI-H1975	0.605
H3255	0.522
NCI-H2023	0.502
NCI-H2405	0.769
SK-LU-1	0.927
NCI-H1734	0.667
NCI-H1437	0.921
ABC-1	1.05
NCI-H596	0.472
HCC-15	0.839
NCI-H460	0.347
EMC-BAC-2	0.682
IA-LM	0.503
NCI-H2009	1.15
COR-L 105	0.862
NCI-H520	0.791
EBC-1	0.654
NCI-H1299	0.985
A549	0.688
COR-L23	0.597
NCI-H1563	0.826
UMC-11	0.947
NCI-H2228	0.623
NCI-H1703	0.35
Calu-6	0.988
HCC-44	0.762
NCI-H1792	0.65
SK-MES-1	0.785
NCI-H661	0.701

Same assay, conditions: first compound 2 µM

Cell Line	relative viability
LU99A	0.569
NCI-H1975	0.632
H3255	0.701
NCI-H2023	0.669
NCI-H2405	0.817
SK-LU-1	1.19
NCI-H1734	0.744
NCI-H1437	0.889
ABC-1	0.894
NCI-H596	0.526
HCC-15	0.902
NCI-H460	0.441
EMC-BAC-2	0.739
IA-LM	0.968
NCI-H2009	1.23
COR-L 105	1.11
NCI-H520	1.03
EBC-1	0.858
NCI-H1299	1.05
A549	0.796
COR-L23	0.786
NCI-H1563	1.04
UMC-11	0.972
NCI-H2228	0.678
NCI-H1703	0.368
Calu-6	1.02
HCC-44	0.803
NCI-H1792	0.645
SK-MES-1	0.848
NCI-H661	0.699

Compound: COC1=CC=C(C=C1)CN2C=CC3=C2C=C(C=C3)C(=O)NO + NC(=O)Nc1cc(-c2cccc(F)c2)sc1C(=O)N[C@H]1CCCNC1 [AZD7762] (partner 0.2 µM)
Experiment: as above
Settings: first compound 0.08 µM
In short: as §1

Cell Line	relative viability
NCI-H2342	0.475
NCI-H1975	0.655
H3255	0.925
NCI-H2405	0.706
NCI-H1437	1.02
NCI-H596	1.12
HCC-15	1.3
NCI-H460	0.536
EMC-BAC-2	0.878
NCI-H1648	0.523
SW 900	0.646
NCI-H1703	0.176
HCC-44	0.938
NCI-H1792	0.755

Same assay, conditions: first compound 0.253 µM

Cell Line	relative viability
NCI-H2342	0.44
LU99A	0.392
NCI-H1975	0.766
H3255	0.774
NCI-H1734	0.612
NCI-H1437	1.13
ABC-1	0.692
NCI-H596	1.18
HCC-15	1.19
NCI-H460	0.485
NCI-H1648	0.584
SW 900	0.596
NCI-H522	0.792
NCI-H1703	0.167
ChaGo-K-1	0.861
HCC-44	1.01
NCI-H1792	0.792

Same assay, conditions: first compound 0.8 µM

Cell Line	relative viability
NCI-H2342	0.468
LU99A	0.384
NCI-H1975	0.775
H3255	0.831
NCI-H2405	0.85
NCI-H1734	0.559
NCI-H1437	1.03
ABC-1	0.871
NCI-H596	1.07
HCC-15	1.23
NCI-H460	0.588
EMC-BAC-2	1.22
NCI-H1648	0.723
SW 900	0.579
NCI-H522	1.06
NCI-H1703	0.146
ChaGo-K-1	0.881
HCC-44	0.99
NCI-H1792	0.716

Same assay, conditions: first compound 2.53 µM

Cell Line	relative viability
NCI-H2342	0.379
LU99A	0.276
NCI-H1975	0.768
H3255	0.843
NCI-H2405	0.796
NCI-H1734	0.567
NCI-H1437	1.13
ABC-1	0.796
NCI-H596	1.19
HCC-15	1.58
NCI-H460	0.614
EMC-BAC-2	1.11
NCI-H1648	0.447
SW 900	0.597
NCI-H522	0.951
NCI-H1703	0.123
ChaGo-K-1	0.766
HCC-44	1.01
NCI-H1792	0.592

Same assay, conditions: first compound 8 µM

Cell Line	relative viability
NCI-H2342	0.389
LU99A	0.208
NCI-H1975	0.576
H3255	0.744
NCI-H2405	0.505
NCI-H1734	0.481
NCI-H1437	1.1
ABC-1	0.756
NCI-H596	0.937
HCC-15	1.1
NCI-H460	0.515
EMC-BAC-2	1
NCI-H1648	0.525
SW 900	0.403
NCI-H522	0.612
NCI-H1703	0.121
ChaGo-K-1	0.762
HCC-44	1.04
NCI-H1792	0.55
